According to PMC2664101 (Journal of medicinal chemistry, 2009):
Like-named read-outs stand apart in the source and are kept apart here.

Key:
[1] = test system: hypoxia-ischemia induced cerebral palsy; conditions: cited from earlier work; for fetal brain NOS activity in vivo / cardiovascular effects / distribution to fetal brain / eNOS regulated blood pressure / toxicity: rabbit; for hypoxia-ischemia induced deaths / number of newborn kits exhibiting symptoms of cerebral palsy: rabbit model for cerebral palsy
rat nNOS = rat nNOS (Rattus norvegicus, UniProt P29476); conditions: comparing 27 with 16
[2] = following maternal administration

drop in nNOS inhibitory potency (rat nNOS) | SMILES | fetal brain NOS activity in vivo [1, 2] | hypoxia-ischemia induced deaths [1] | number of newborn kits exhibiting symptoms of cerebral palsy [1] | cardiovascular effects ([1]; in vivo) | distribution to fetal brain ([1]; in vivo) | eNOS regulated blood pressure ([1]; in vivo) | toxicity ([1]; in vivo) | toxicity [1, 2]
 | Cc1cc(N)nc(C[C@H]2CNC[C@H]2NCCNCCc2cccc(F)c2)c1 [compound 26] | inhibit fetal brain NOS activity in vivo | prevent hypoxia-ischemia induced deaths | reduce the number of newborn kits exhibiting symptoms of cerebral palsy | without cardiovascular effects | distribute to fetal brain | without affecting the eNOS regulated blood pressure | non-toxic | 
more than 200 fold | Cc1cc(C[C@H]2CNC[C@H]2NCCNCc2ccc(Cl)cc2)cc(N)n1.Cl (racemic) [compound 27, N^1-{(±)-4′-[(2”-amino-6”-methylpyridin-4”-yl)methyl]pyrrolidin-3′-yl}-N^2-(4′-chlorobenzyl)ethane-1,2-diamine tetrahydrochloride] |  |  |  |  |  |  |  | 
 | Cc1cc(N)nc(C[C@H]2CNC[C@H]2NCCNCc2ccc(Cl)cc2)c1.Cl [compound 16] | inhibit fetal brain NOS activity in vivo | prevent hypoxia-ischemia induced deaths | reduce the number of newborn kits exhibiting symptoms of cerebral palsy | without cardiovascular effects | distribute to fetal brain | without affecting the eNOS regulated blood pressure |  | non-toxic
